These results are taken from paper PMC8037310, “Thrombin-Derived Peptides Potentiate the Activity of Gram-Positive-Specific Antibiotics against Gram-Negative Bacteria” (Molecules, 2021).

Common to all, as to type: cell-based, Escherichia coli
The subject of assay [1] is E. coli BW25113. In words: microbe, parasite or virus in culture. The protocol:
(§1) All peptides were screened for antimicrobial activity against E. coli BW25113, E. coli ATCC25922, and E. coli W3110. A select group of the peptides was further tested against E. coli mcr-1, E. coli EQASmcr-1 (EQAS 2016 412016126), E. coli EQASmcr-2 (EQAS 2016 KP37), E. coli EQASmcr-3 (EQAS 2017 2013-SQ352), K. pneumoniae ATCC13883, P. aeruginosa ATCC27853, and A. baumannii ATCC17978. The antimicrobial assay was performed according to CLSI guidelines. Bacteria were plated out directly from their glycerol stocks on blood agar plates, incubated overnight at 37 °C, and then kept in the fridge. The blood agar plates were only used for 2 weeks and then replaced.
(§2) One colony from a blood agar plates was inoculated in Lysogeny Broth (LB) at 37 °C until a 0.5 optical density at 600 nm (OD600) was reached (compared to the sterility control of LB). The bacterial suspension was diluted in fresh LB to 2.0 × 10^6 CFU/mL. The serial dilutions were prepared in polypropylene microtiter plates: a stock of the test compounds was prepared with a 2x final concentration in LB. Moreover, 100 µL of the stock was added to the wells of the top row of which 50 µL was used for the serial dilution. The bottom row of each plate was used as the positive (50 µL of LB) and negative controls (100 µL of LB) (6 wells each). Furthermore, 50 µL of the 2.0 × 10^6 CFU/mL bacterial stock was added to each well except for the negative controls, adding up to a total volume of 100 µL per well. The plates were sealed with a breathable seal and incubated for 20 h at 37 °C and 600 rpm.
(§3) Two 96-well plates were required per compound. A serial dilution of the compound was performed on two plates from row A–G using with LB as medium. Row H was filled with 25 µL medium. On a separate plate a negative control (8 wells, 100 μL medium) was prepared. For all concentrations of antibiotic a specific stock was prepared. 25 µL medium was added to the 0 µg/mL antibiotic columns (plate I, column 1–3). Of each antibiotic stock 25 µL was added to three columns to obtain triplicates for every condition. Both plates contained 50 µL in each well to which 50 µL bacterial stock was added (see the protocol of the MIC assays) and the plates were sealed. After incubation for 20 h at 37 °C while shaking, the breathable seals were removed and the density of the bacterial suspensions measured at 600 nm (OD600) using a Tecan Spark plate reader. The OD600 values were transformed to a 2D gradient with the negative control as minimum and the positive control (wells G1, G2, and G3) as maximum in excel. The FICi was calculated using Equation (1) with a FICi ≤ 0.5 indicating synergy. FICi = (MSCa/MICa) + (MSCb/MICb),(1)
(§4) Calculation of the FICi: MSCa = concentration of the […] in combination with the antibiotic that results in the lowest FICi. MICa = MIC of the antibiotic without synergist (row G). MSCb = concentration of the synergist in combination with the antibiotic that results in the lowest FICi. MICb = MIC of the synergist itself (Column 1–3, plate I).

In assay [2] the test system is E. coli BW25113.
In assay [3] the test system is E. coli BW25113. Kind of assay: microbe, parasite or virus in culture. The protocol:
as §1, §2, §3, §4
This is another data set of the same source.

Assay [4] deals with E. coli BW25113. Kind of assay: Checkerboard assay with erythromycin.
Assay [5] concerns E. coli BW25113. In words: Membrane permeability assay using N-phenylnaphthalen-1-amine (NPN). As to conditions: at […]; 60 min incubation, λex 355 nm, λem 420 nm, relative to 100 µg/mL colistin; n = 3 technical replicates. On the procedure:
Figure 7 Permeabilization assay of E. coli BW25113 using N-Phenyl-1-naphthylamine as fluorescent probe. The read-out was performed after 60 min of incubation using a plate reader with λex 355 nm and λem 420 nm. The N-phenyl-napthalen-1-amine (NPN) uptake values shown are relative to the uptake signal obtained upon treating the cells with 100 µg/mL colistin as previously reported. Error bars represent the standard deviation based on n = 3 technical replicates. A read-out was also performed after 10 min of incubation (see Supplementary data, Figure S16).
This assay was adapted from a protocol described in literature. Bacteria were inoculated overnight at 37 °C in LB, diluted the next day 50× in LB and grown to OD600 of 0.5. The bacterial suspension was then centrifuged for 10 min at 1000× g at 25 °C. The pellet of bacteria was resuspended in 5 mM HEPES buffer containing 20mM glucose to a final concentration of OD600 of 1.0. […] After 10 and 60 min, the plate was measured using Tecan plate reader with λex 355 nm ±20 nm and λem 420 nm ± 20 nm. The fluorescence values obtained were then transformed into a NPN uptake percentage using the following Equation (2):NPN uptake (%) = (Fobs − F0)/(F100 − F0) × 100%,(2)
Equation (2) consists of an observed value of fluorescence (Fobs), which is corrected for background using the negative control (F0). […]

Bridge positions count the residues as written; N and C are the ends. Square brackets hold non-standard residues; d marks the D form. Peptide text beside a SMILES is read from it. Dab = NCC[C@H](N)C(=O)O

With `CC(C)C[C@@H]1NC(=O)[C@@H](Cc2ccccc2)NC(=O)[C@H](CCN)NC(=O)[C@@H](NC(=O)[C@H](CCN)NC(=O)[C@@H](N)[C@@H](C)O)CCNC(=O)[C@H]([C@@H](C)O)NC(=O)[C@H](CCN)NC(=O)[C@H](CCN)NC1=O` [PMBN, polymyxin B nonapeptide, reference compound] (H-T[Dab][Dab][Dab][dF]L[Dab][Dab]T; lactam 3-C (inferred); N-terminus assumed), the MICpeptide in the assay on E. coli BW25113 [1] (synergist alone, E. coli BW25113, from checkerboard with vancomycin) is more than 200 µg/mL; in the assay with E. coli BW25113 [3] (synergist alone, E. coli BW25113, from checkerboard with novobiocin) it was more than 200 µg/mL. The MSCpeptide in the assay with E. coli BW25113 [1] (synergist concentration in the combination with vancomycin giving the lowest FICi, E. coli BW25113) came to 12.5 µg/mL; in the assay on E. coli BW25113 [3] (synergist concentration in the combination with novobiocin giving the lowest FICi, E. coli BW25113), 12.5 µg/mL. Besides, the MSCvanco in the assay with E. coli BW25113 [1] (vancomycin concentration in the combination giving the lowest FICi, E. coli BW25113) is 50 µg/mL. In addition, the MSCrif in the assay with E. coli BW25113 [2] (rifampicin concentration in the combination giving the lowest FICi, E. coli BW25113) turned out to be 0.25 µg/mL. For the same compound, the MICpep in the assay with E. coli BW25113 [2] (synergist alone, E. coli BW25113, from checkerboard with rifampicin) was more than 200 µg/mL. For the same compound, the MSCpep with E. coli BW25113 [2] (synergist concentration in the combination with rifampicin giving the lowest FICi, E. coli BW25113) came out at 12.5 µg/mL. Moreover, in the assay on E. coli BW25113 [3] (novobiocin concentration in the combination giving the lowest FICi, E. coli BW25113), the MSCnovo was determined as 6.25 µg/mL. For the same compound, in the assay on E. coli BW25113 [4] (BW25113, 20 h), the FICi was determined as 0.125. Moreover, the MSCery in the assay on E. coli BW25113 [4] (erythromycin concentration in the combination with the synergist giving the lowest FICi, E. coli BW25113) came out at 12.5 µg/mL. Also, in the assay on E. coli BW25113 [4] (synergist alone, E. coli BW25113, LB, 20 h 37 °C, from checkerboard with erythromycin), the “MIC of the peptide (MICpep)” value is more than 200 µg/mL. For the same compound, the “MSCpeptide, minimum synergistic concentration” value in the assay with E. coli BW25113 [4] (synergist concentration in the combination with erythromycin giving the lowest FICi, E. coli BW25113, LB, 20 h 37 °C, OD600) worked out at 25 µg/mL. Further, the “OM permeabilization (NPN uptake)” value with E. coli BW25113 [5] was “ca. 80%”.
